Experimental data reported in publication PMC9541320, “Machine Learning Guided Discovery of Non‐Hemolytic Membrane Disruptive Anticancer Peptides” (Chemmedchem, 2022).
Values after ≈ are worked out from the molar mass of the structure shown. Like-named read-outs stand apart in the source and are kept apart here. Where a SMILES comes first, the peptide text is derived from it. Where no end group is shown, it is not given here. [ ]: non-standard residue; d: D form.

Assays:
[1] = tested on: HeLa cells; assay: Cell viability assay by AlamarBlue, HeLa cells; format: cell-based; conditions: 72 h incubation at 37 °C in DMEM high glucose medium with 10 % FBS; read-out: Toxicity IC50 HeLa
Procedure: (§2) To measure potential ACP activity, we exposed HeLa cells to 50 μM of each peptide for 72 h and quantified remaining live cells with Alamar Blue. We performed full IC50 determination for active sequences under the same conditions and similarly profiled HEK293 cells as a model for non‐cancer cells.
(§3) Cell Viability assay by AlamarBlue. […] HEK‐293 were seeded into well plates, pretreated with solution of poly‐L‐Lysine. The medium was removed and the compounds at increasing concentration were added into the wells. The cells were incubated for 72 h in 200 μL/well at 37 °C in corresponding medium in the presence of 5 % CO2. After incubation time the medium was removed and replaced by 100 μL/well of medium containing 10 % AlamarBlue. The cells were incubated for 3–5 h at 37 °C with 5 % CO2 in a humidified atmosphere. The fluorescence was then measured on a Tecan Infinite M1000 Pro plate reader at λex 560 nm and λem 590 nm. The value was normalized according to the untreated cells.

[2] = tested on: HEK293 cells; assay: Cell viability assay by AlamarBlue, HEK293 cells (model for non-cancer cells); format: cell-based; conditions: 72 h incubation at 37 °C in DMEM high glucose medium with 10 % FBS; read-out: Toxicity IC50 HEK 293
Procedure: as §2, §3

[3] = tested on: P. aeruginosa PAO1 (WT); format: cell-based, Pseudomonas aeruginosa
Procedure: (§1) […]. Minimal inhibitory concentration (MIC) determination. The minimal inhibitory concentration (MIC) was determined by using broth microdilution method. Antimicrobial activity was assayed against P. aeruginosa PAO1 (WT), Acinetobacter baumannii (ATCC19606). […]. The next day, 15 μL of MTT solution was added to each well of the plate, such a way that MIC was defined as the lowest concentration of the peptide that inhibited visible growth of the tested bacteria.

[4] = tested on: Acinetobacter baumannii (ATCC19606); format: cell-based
Procedure: as §1

[5] = tested on: human red blood cells (hRBC); assay: Hemolysis assay on human red blood cells; format: cell-based
Text: Synthesis and bioactivity testing. We prepared the 33 selected peptides, as well as the reference ACP LL‐III, by semi‐automated high‐temperature Fmoc solid‐phase peptide synthesis and obtained pure samples by preparative HPLC. All peptides were well‐behaved in terms of aqueous solubility, in line with the presence of two to seven cationic residues (lysine or arginine) in each sequence (Table 1). […]. We performed full IC50 determination for active sequences under the same conditions and similarly profiled HEK293 cells as a model for non‐cancer cells. Finally, we determined peptide concentrations causing 50 % hemolysis (HC50) on human red blood cells (hRBC) by serial 2‐fold dilution.
Hemolysis assay. Compounds were subjected to a hemolysis assay to assess the hemolytic effect on human red blood cells (hRBCs). […]. Controls on each plate included a blank medium control (PBS 100 μL) and a hemolytic activity control (0.1 % Triton^TM X‐100). 100 μL of hRBC suspension was incubated with 100 μL of each sample in PBS in V‐shape 96‐well plate. […]. Hemolysis was measured by analyzing the absorbance of free hemoglobin leaked out of compromised in the supernatants at 540 nm with a plate reader (Tecan instrument Infinite M1000). The percentage of hemolysis at each concentration was detected and HC50 was determined.

[6] = tested on: human red blood cells (hRBC); conditions: below 200 μM; cited from earlier work
[7] = incubation 16–20 h at 37 °C in MH medium
[8] = human red blood cells in 10 mM phosphate buffer saline, pH 7.4, 25 °C

Row | Compound | IC50 [1] [µM] | IC50 [2] [µM] | MIC PAO1 [3, 7] [µg/mL] | MIC A. baumannii [4, 7] [µg/mL] | Hemolysis HC50 hRBC [5, 8] [µM] | Hemolysis HC50 hRBC ([5]; pH 7.4) [µM] | MIC PAO1 ([3]; PAO1) [µg/mL] | MIC A. baumannii ([4]; ATCC19606) [µg/mL] | documented hemolysis [6]
1 | anwkkwigkviklvk [DB1] | 6.2 ± 1.1 | 13.1 ± 2.8 | 4 | 2 | – | – | – | – | –
2 | CC[C@@H](C)[C@@H](NC(=O)[C@@H](CCCCN)NC(=O)[C@@H](CCCCN)NC(=O)[C@@H](Cc1c[nH]c2ccccc12)NC(=O)[C@@H](CC(N)=O)NC(=O)[C@H](N)C(C)C)C(=O)N[C@H](CC(C)C)C(=O)NCC(=O)N[C@H](CCCCN)C(=O)N[C@@H](C(=O)N[C@@H](C(=O)N[C@H](CCCCN)C(=O)N[C@@H](C(=O)N[C@@H](C(=O)N[C@H](CCCCN)C(N)=O)C(C)C)C(C)C)[C@H](C)CC)[C@H](C)CC [DLL‐III, vnwkkilgkiikvvk] (H-[dV][dN][dW][dK][dK][dI][dL]G[dK][dI][dI][dK][dV][dV][dK]-NH2) | 5 ± 0.7 | 14.5 ± 2 | 4 (≈ 2.27 µM) | 2 (≈ 1.13 µM) | >200 | – | – | – | –
3 | C[C@@H](NC(=O)[C@H](N)Cc1ccccc1)C(=O)N[C@H](CCCCN)C(=O)N[C@H](CCCCN)C(=O)N[C@H](Cc1ccccc1)C(=O)N[C@H](Cc1ccccc1)C(=O)N[C@H](CCCCN)C(=O)N[C@H](CCCCN)C(=O)N[C@H](Cc1ccccc1)C(=O)N[C@H](C)C(=O)N[C@H](CCCCN)C(=O)N[C@H](Cc1ccccc1)C(=O)N[C@H](C)C(=O)N[C@H](Cc1ccccc1)C(=O)N[C@H](CCCCN)C(N)=O [DA1, fakkffkkfakfafk] (H-[dF][dA][dK][dK][dF][dF][dK][dK][dF][dA][dK][dF][dA][dF][dK]-NH2) | 7.9 ± 0.3 | 15 ± 2.3 | – | – | – | >200 | 4 (≈ 2.12 µM) | 4 (≈ 2.12 µM) | –
4 | VNWKKILGKIIKVVK-NH2 [LL‐III, lasioglossin III] | 6 ± 0.5 | 15 ± 3 | – | 4 | >200 | – | – | – | non‐hemolytic
